US7109243B2 (IRM LLC, priority 2003, dated 2006)

What was measured:
Cathepsin S = Cathepsin S (Homo sapiens, UniProt P25774); test: Cathepsin S inhibition assay (fluorogenic peptide substrate); format: biochemical; conditions: Table II, compounds of Formula I; read-out: Ki Cat. S
Method in brief: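 Ki values come from nonlinear fitting of inhibited hydrolysis rates, taking free and total inhibitor concentrations as equal. Rates measured as rising fluorescence at 380/450 nm after reaction start with 50 μM final acetyl-HPVK-aminocarbamoylcoumarin.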

Cathepsin K = target: T1, Cathepsin K (Homo sapiens, UniProt P43235); test: Cathepsin K inhibition assay (fluorogenic peptide substrate); selectivity ratio vs cathepsin S; format: biochemical; conditions: ratio of cathepsin K inhibition constant to cathepsin S inhibition constant; Table II
T1 sequence (P43235 115-329): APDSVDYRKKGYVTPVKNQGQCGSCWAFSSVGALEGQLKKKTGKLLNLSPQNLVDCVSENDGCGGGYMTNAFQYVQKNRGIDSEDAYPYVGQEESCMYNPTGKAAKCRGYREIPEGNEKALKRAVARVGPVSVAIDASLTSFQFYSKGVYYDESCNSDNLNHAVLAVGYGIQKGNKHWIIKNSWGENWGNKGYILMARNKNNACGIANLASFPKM
Method in brief: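 Fluorogenic kinetic assay, started with acetyl-Lys-His-Pro-Lys-aminocarbamoylcoumarin at 40 μM final, hydrolysis followed at ex 380/em 450 nm. Apparent inhibition constants from progress curves, converted to competitive inhibition constants. Selectivity expressed as isozyme inhibition constant divided by cathepsin S inhibition constant.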

Chain of Cathepsin S (P25774 115-331, species assumed): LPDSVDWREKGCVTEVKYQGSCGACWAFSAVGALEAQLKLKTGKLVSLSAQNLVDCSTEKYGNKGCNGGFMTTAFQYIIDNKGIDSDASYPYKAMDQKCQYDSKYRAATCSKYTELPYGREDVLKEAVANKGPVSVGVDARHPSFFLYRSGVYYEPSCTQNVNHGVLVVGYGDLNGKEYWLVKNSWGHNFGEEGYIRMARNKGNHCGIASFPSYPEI

SMILES | Ki (Cathepsin S) | Selectivity for Cat. S over Cat. K (Cathepsin K)
COc1ccc(NCCNC(=O)[C@H](CCC2CCCCC2)NC(=O)c2cc3cc(F)ccc3[nH]2)cc1 [Compound 132, (S)-5-Fluoro-1H-indole-2-carboxylic acid {3-cyclohexyl-1-[2-(4-methoxy-phenylamino)-ethylcarbamoyl]-propyl}-amide] | < 1000 nM | ++ (++, >100)
COc1ccc(NCCNC(=O)[C@H](CCC2CCCCC2)NC(=O)c2sc(N)nc2C)cc1 [Compound 133, (S)-2-Amino-4-methyl-thiazole-5-carboxylic acid {3-cyclohexyl-1-[2-(4-methoxy-phenylamino)-ethylcarbamoyl]-propyl}-amide] | < 1000 nM | ++ (++, >100)
COc1ccc(NCCNC(=O)[C@H](CCC2CCCCC2)NC(=O)c2cc3cc(Cl)ccc3o2)cc1 [Compound 134, (S)-5-Chloro-benzofuran-2-carboxylic acid {3-cyclohexyl-1-[2-(4-methoxy-phenylamino)-ethylcarbamoyl]-propyl}-amide] | < 1000 nM | ++ (++, >100)
COc1ccc(NCCNC(=O)[C@H](CCC2CCCCC2)NC(=O)c2ccc(-c3cccc(C(F)(F)F)c3)o2)cc1 [Compound 136, (S)-5-(3-Trifluoromethyl-phenyl)-furan-2-carboxylic acid {3-cyclohexyl-1-[2-(4-methoxy-phenylamino)-ethylcarbamoyl]-propyl}-amide] | < 1000 nM | ++ (++, >100)
COc1ccc(NCCNC(=O)[C@H](CCC2CCCCC2)NC(=O)c2ccc(-n3cncn3)cc2)cc1 [Compound 143, (S)-N-{3-Cyclohexyl-1-[2-(4-methoxy-phenylamino)-ethylcarbamoyl]-propyl}-4-[1,2,4]triazol-1-yl-benzamide] | < 1000 nM | ++ (++, >100)
COc1ccc(NCCNC(=O)[C@H](CCC2CCCCC2)NC(=O)c2cccc(-c3ccccc3)c2)cc1 [Compound 144, (S)-Biphenyl-3-carboxylic acid {3-cyclohexyl-1-[2-(4-methoxy-phenylamino)-ethylcarbamoyl]-propyl}-amide] | < 1000 nM | +++ (+++, >1000)
COc1ccc(NCCNC(=O)[C@H](CC2CCCCC2)NC(=O)c2ccc(F)c(C(F)(F)F)c2)cc1 [Compound 149, (S)-N-{2-Cyclohexyl-1-[2-(4-methoxy-phenylamino)-ethylcarbamoyl]-ethyl}-4-fluoro-3-trifluoromethyl-benzamide] | < 100 nM | +++ (+++, >1000)
CCCc1ccc(C(=O)N[C@@H](CC2CCCCC2)C(=O)NCCNc2ccc(OC)cc2)cc1 [Compound 151, (S)-N-{2-Cyclohexyl-1-[2-(4-methoxy-phenylamino)-ethylcarbamoyl]-ethyl}-4-propyl-benzamide] | < 100 nM | + (+, >10)
O=C(Cc1ccc(F)cc1)N[C@@H](CC1CCCCC1)C(=O)NCCNc1ccc(F)cc1 [Compound 152, 3-Cyclohexyl-2-(S)-[2-(4-fluoro-phenyl)-acetylamino]-N-[2-(4-fluoro-phenylamino)-ethyl]-propionamide] | < 100 nM | ++ (++, >100)
COc1ccc(NCCNC(=O)[C@H](CC2CCCCC2)NC(=O)c2ccc(OC)cc2)cc1 [Compound 153, (S)-N-{2-Cyclohexyl-1-[2-(4-methoxy-phenylamino)-ethylcarbamoyl]-ethyl}-4-methoxy-benzamide] | < 100 nM | + (+, >10)
COc1ccc(NCCNC(=O)[C@H](CC2CCCCC2)NC(=O)c2cc(C(F)(F)F)ccc2F)cc1 [Compound 154, (S)-N-{2-Cyclohexyl-1-[2-(4-methoxy-phenylamino)-ethylcarbamoyl]-ethyl}-2-fluoro-5-trifluoromethyl-benzamide] | < 100 nM | ++ (++, >100)
COc1ccc(NCCNC(=O)[C@H](CC2CCCCC2)NC(=O)c2cccc(Cl)c2F)cc1 [Compound 155, (S)-3-Chloro-N-{2-cyclohexyl-1-[2-(4-methoxy-phenylamino)-ethylcarbamoyl]-ethyl}-2-fluoro-benzamide] | < 100 nM | +++ (+++, >1000)
COc1ccc(NCCNC(=O)[C@H](CC2CCCCC2)NC(=O)c2cc(Cl)ccc2F)cc1 [Compound 156, (S)-5-Chloro-N-{2-cyclohexyl-1-[2-(4-methoxy-phenylamino)-ethylcarbamoyl]-ethyl}-2-fluoro-benzamide] | < 100 nM | +++ (+++, >1000)
COc1ccc(NCCNC(=O)[C@H](CC2CCCCC2)NC(=O)c2cc(F)ccc2C)cc1 [Compound 157, (S)-N-{2-Cyclohexyl-1-[2-(4-methoxy-phenylamino)-ethylcarbamoyl]-ethyl}-5-fluoro-2-methyl-benzamide] | < 100 nM | +++ (+++, >1000)
COc1ccc(NCCNC(=O)[C@H](CC2CCCCC2)NC(=O)C2(c3ccccc3)CC2)cc1 [Compound 158, (S)-1-Phenyl-cyclopropanecarboxylic acid {2-cyclohexyl-1-[2-(4-methoxy-phenylamino)-ethylcarbamoyl]-ethyl}-amide] | < 100 nM | ++ (++, >100)
COc1ccc(NCCNC(=O)[C@H](CC2CCCCC2)NC(=O)CNc2ccccc2)cc1 [Compound 159, (S)-3-Cyclohexyl-N-[2-(4-methoxy-phenylamino)-ethyl]-2-(2-phenylamino-acetylamino)-propionamide] | < 100 nM | +++ (+++, >1000)

More lines, now with the values ahead:

Ki (Cathepsin S) | Selectivity for Cat. S over Cat. K (Cathepsin K) | SMILES
< 100 nM | +++ (+++, >1000) | CC[C@@H](C(=O)N[C@@H](CC1CCCCC1)C(=O)NCCNc1ccc(OC(F)(F)F)cc1)c1ccccc1 [Compound 135, N-{2-cyclohexyl-1-(S)-[2-(4-trifluoromethoxy-phenylamino)-ethylcarbamoyl]-ethyl}-2-(R)-phenyl-butyramide]
< 100 nM | +++ (+++, >1000) | COc1ccc(NCCNC(=O)[C@H](CCC2CCCCC2)NC(=O)c2ccc3ncsc3c2)cc1 [Compound 137, (S)-Benzothiazole-6-carboxylic acid {3-cyclohexyl-1-[2-(4-methoxy-phenylamino)-ethylcarbamoyl]-propyl}-amide]
< 100 nM | +++ (+++, >1000) | COc1ccc(NCCNC(=O)[C@H](CCC2CCCCC2)NC(=O)c2cccc(OC(F)(F)F)c2)cc1 [Compound 138, (S)-N-{3-Cyclohexyl-1-[2-(4-methoxy-phenylamino)-ethylcarbamoyl]-propyl}-3-trifluoromethoxy-benzamide]
< 100 nM | +++ (+++, >1000) | COc1ccc(NCCNC(=O)[C@H](CCC2CCCCC2)NC(=O)c2cccc(C#N)c2)cc1 [Compound 139, (S)-3-Cyano-N-{3-cyclohexyl-1-[2-(4-methoxy-phenylamino)-ethylcarbamoyl]-propyl}-benzamide]
< 100 nM | +++ (+++, >1000) | COc1ccc(NCCNC(=O)[C@H](CCC2CCCCC2)NC(=O)c2ccc(C#N)cc2)cc1 [Compound 140, (S)-4-Cyano-N-{3-cyclohexyl-1-[2-(4-methoxy-phenylamino)-ethylcarbamoyl]-propyl}-benzamide]
< 100 nM | + (+, >10) | O=C(N[C@@H](CC1CCCCC1)C(=O)NCCNc1ccc(OC(F)(F)F)cc1)c1ccc(Oc2ccccc2)cc1 [Compound 141, N-{2-cyclohexyl-1-(S)-[2-(4-trifluoromethoxy-phenylamino)-ethylcarbamoyl]-ethyl}-4-phenoxy-benzamide]
< 100 nM | +++ (+++, >1000) | COc1ccc(NCCNC(=O)[C@H](CCC2CCCCC2)NC(=O)c2cccc(-c3csc(C)n3)c2)cc1 [Compound 142, (S)-N-{3-Cyclohexyl-1-[2-(4-methoxy-phenylamino)-ethylcarbamoyl]-propyl}-3-(2-methyl-thiazol-4-yl)-benzamide]
< 100 nM | +++ (+++, >1000) | COc1ccc(NCCNC(=O)[C@H](CC2CCCCC2)NC(=O)c2ccccc2F)cc1 [Compound 145, (S)-N-{2-Cyclohexyl-1-[2-(4-methoxy-phenylamino)-ethylcarbamoyl]-ethyl}-2-fluoro-benzamide]
< 100 nM | +++ (+++, >1000) | COc1ccc(NCCNC(=O)[C@H](CC2CCCCC2)NC(=O)c2ccc(F)c(F)c2)cc1 [Compound 146, (S)-N-{2-Cyclohexyl-1-[2-(4-methoxy-phenylamino)-ethylcarbamoyl]-ethyl}-3,4-difluoro-benzamide]
< 100 nM | +++ (+++, >1000) | COc1ccc(NCCNC(=O)[C@H](CC2CCCCC2)NC(=O)c2cccc(F)c2C)cc1 [Compound 147, (S)-N-{2-Cyclohexyl-1-[2-(4-methoxy-phenylamino)-ethylcarbamoyl]-ethyl}-3-fluoro-2-methyl-benzamide]
< 100 nM | +++ (+++, >1000) | COc1ccc(NCCNC(=O)[C@H](CC2CCCCC2)NC(=O)c2cc(C)ccc2Cl)cc1 [Compound 148, (S)-2-Chloro-N-{2-cyclohexyl-1-[2-(4-methoxy-phenylamino)-ethylcarbamoyl]-ethyl}-5-methyl-benzamide]
